Experimental data: US9617256B2 (priority 2007, dated 2017)
≈ marks a conversion by molar mass, not a printed value.

Columns and labels:
[1] = tested on: APAE006 in the presence of 8 micrograms per milliliter of polymyxin B nonapeptide; type: cell-based, P. aeruginosa; settings: in the presence of 8 micrograms per milliliter of polymyxin B nonapeptide
Procedure, shortened: (§1)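 CLSI broth microdilution in cation-adjusted Mueller-Hinton broth, final inoculum 3×10^5–7×10^5 CFU/mL, 2-fold drug dilutions, 18-24 hours at 35° C. in ambient air. APAE006 is an efflux-pump-inactivated P. aeruginosa strain. Assay performance monitored with QC strains and levofloxacin.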

[2] = tested on: AABA1060 (clinical isolate of Acinetobacter baumannii); assay: MIC broth microdilution, AABA1060; type: cell-based; settings: for MIC: Acinetobacter baumannii, read-out: MIC AABA1060
Procedure, shortened: (§2)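 Minimum inhibitory concentrations followed CLSI broth microdilution guidelines: cation-adjusted Mueller-Hinton broth, 2-fold serial drug dilutions, final inoculum 3×10^5–7×10^5 CFU/mL, ambient air at 35° C. for 18-24 hours. Quality-control strains and levofloxacin monitored performance.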

AECO001 (ATCC25922) = assay: MIC broth microdilution, AECO001; type: cell-based, E. coli; settings: for MIC: Escherichia coli, ATCC25922, read-out: MIC AECO001
Procedure, shortened: as §2

APAE001 (ATCC27853) = assay: MIC broth microdilution, APAE001; type: cell-based, P. aeruginosa; settings: for MIC: Pseudomonas aeruginosa, ATCC27853, read-out: MIC APAE001, APAE001 is ATCC27853
Procedure, shortened: as §2

AECO001 HSA AGP = assay: MIC broth microdilution, AECO001 HSA AGP; type: cell-based, E. coli; settings: for MIC: Escherichia coli
Procedure, shortened: as §2

[3] = tested on: APAE006 (strain of P. aeruginosa in which all efflux pumps are inactivated); assay: microbe, parasite or virus in culture; type: cell-based; settings: for MIC: Pseudomonas aeruginosa, read-out: MIC APAE006, P. aeruginosa, all efflux pumps inactivated
Procedure, shortened: as §1

[4] = tested on: AECO063 (ATCC25922 bearing an acrAB mutation); assay: microbe, parasite or virus in culture; type: cell-based, E. coli; settings: for MIC: Escherichia coli, ATCC25922, read-out: MIC AECO063
Procedure, shortened: as §2

[5] = tested on: ASAU001 (laboratory strain of S. aureus, ATCC29213); assay: MIC broth microdilution, ASAU001; type: cell-based; settings: for MIC: Staphylococcus aureus, ATCC29213, read-out: MIC ASAU001
Procedure, shortened: as §2

Row | SMILES | MIC APAE006 + PMBN [1] | MIC [2] | MIC (AECO001 (ATCC25922)) | MIC (APAE001 (ATCC27853)) | MIC (AECO001 HSA AGP) | MIC [3] | MIC [4] | MIC [5] | MIC AABA1060 ([2]; clinical isolate of Acinetobacter baumannii) | MIC AECO001 (AECO001 (ATCC25922); AECO001 is ATCC25922) | MIC APAE001 (APAE001 (ATCC27853); APAE001 is ATCC27853) | MIC AECO001 HSA AGP (AECO001 HSA AGP) | MIC APAE006 ([3]; P. aeruginosa, all efflux pumps inactivated) | MIC AECO063 ([4]; ATCC25922 bearing an acrAB mutation) | MIC ASAU001 ([5]; S. aureus ATCC29213)
1 | C[C@@H](N)[C@H](NC(=O)c1ccc(C#Cc2ccc(CN3CCC(O)C3)cc2)cc1)C(=O)NO (some centres unmarked) [Example 115-6] | A (MIC's of 2.0 μg/mL or less = A) | 16 to 64 µg/mL (≈ 36.7 to 147 µM) | 2 to 16 µg/mL (≈ 4.58 to 36.7 µM) | < 2 µg/mL | 2 to 16 µg/mL (≈ 4.58 to 36.7 µM) | < 2 µg/mL | < 2 µg/mL | > 64 µg/mL | – | – | – | – | – | – | –
2 | Cn1cncc1C#CC#Cc1ccc(C(=O)N[C@H](C(=O)NO)C(C)(C)O)cc1 [Example 88-10] | A (MIC's of 2.0 μg/mL or less = A) | 2 to 16 µg/mL (≈ 5.26 to 42.1 µM) | < 2 µg/mL | 2 to 16 µg/mL (≈ 5.26 to 42.1 µM) | 2 to 16 µg/mL (≈ 5.26 to 42.1 µM) | < 2 µg/mL | < 2 µg/mL | 16 to 64 µg/mL (≈ 42.1 to 168 µM) | – | – | – | – | – | – | –
3 | C[C@@H](O)[C@H](NC(=O)c1ccc(C#CC#Cc2ccc(CNC3CC3)cc2)cc1)C(=O)NO [Example 87-2] | A (MIC's of 2.0 μg/mL or less = A) | 16 to 64 µg/mL (≈ 37.1 to 148 µM) | < 2 µg/mL | < 2 µg/mL | < 2 µg/mL | < 2 µg/mL | < 2 µg/mL | 16 to 64 µg/mL (≈ 37.1 to 148 µM) | – | – | – | – | – | – | –
4 | CC(C)(O)[C@H](NC(=O)c1ccc(C#CC#Cc2ccc(CNC3CC3)cc2)cc1)C(=O)NO [Example 87-3] | A (MIC's of 2.0 μg/mL or less = A) | < 2 µg/mL | < 2 µg/mL | < 2 µg/mL | < 2 µg/mL | < 2 µg/mL | < 2 µg/mL | 16 to 64 µg/mL (≈ 35.9 to 144 µM) | – | – | – | – | – | – | –
5 | O=CN(O)CCNC(=O)c1ccc(C#Cc2ccc(CN3CCOCC3)cc2)cc1 [Example 127-1, N-[2-(Formyl-hydroxyamino)-ethyl]-4-(4-morpholin-4-ylmethyl-phenylethynyl)-benzamide] | C (MIC's of greater than 16.0 μg/mL to 64.0 μg/mL = C) | > 64 µg/mL | 16 to 64 µg/mL (≈ 39.3 to 157 µM) | > 64 µg/mL | 16 to 64 µg/mL (≈ 39.3 to 157 µM) | 16 to 64 µg/mL (≈ 39.3 to 157 µM) | 2 to 16 µg/mL (≈ 4.91 to 39.3 µM) | > 64 µg/mL | – | – | – | – | – | – | –
6 | C[C@@H](O)[C@H](NC(=O)c1ccc(CCc2ccc(CN3CCOCC3)cc2)cc1)C(=O)NO [Example 137-8] | A (MIC's of 2.0 μg/mL or less = A) | 16 to 64 µg/mL (≈ 36.2 to 145 µM) | 2 to 16 µg/mL (≈ 4.53 to 36.2 µM) | 2 to 16 µg/mL (≈ 4.53 to 36.2 µM) | 16 to 64 µg/mL (≈ 36.2 to 145 µM) | < 2 µg/mL | < 2 µg/mL | 16 to 64 µg/mL (≈ 36.2 to 145 µM) | – | – | – | – | – | – | –
7 | C[C@@H](N)[C@H](NC(=O)c1ccc(C#Cc2ccc(CN3CCC3)cc2)cc1)C(=O)NO [Example 118-1, N-((1S,2R)-2-Amino-1-hydroxycarbamoyl-propyl)-4-(4-azetidin-1-ylmethyl-phenylethynyl)-benzamide] | A (MIC's of 2.0 μg/mL or less = A) | 16 to 64 µg/mL (≈ 39.4 to 157 µM) | 16 to 64 µg/mL (≈ 39.4 to 157 µM) | 2 to 16 µg/mL (≈ 4.92 to 39.4 µM) | 16 to 64 µg/mL (≈ 39.4 to 157 µM) | < 2 µg/mL | 2 to 16 µg/mL (≈ 4.92 to 39.4 µM) | 16 to 64 µg/mL (≈ 39.4 to 157 µM) | – | – | – | – | – | – | –
8 | C[C@@H](NC(=O)CNC1CC1)[C@H](NC(=O)c1ccc(C#Cc2ccc(CN3CCOCC3)cc2)cc1)C(=O)NO [Example 137-2] | A (MIC's of 2.0 μg/mL or less = A) | 16 to 64 µg/mL (≈ 30 to 120 µM) | < 2 µg/mL | 2 to 16 µg/mL (≈ 3.75 to 30 µM) | 2 to 16 µg/mL (≈ 3.75 to 30 µM) | < 2 µg/mL | < 2 µg/mL | > 64 µg/mL | – | – | – | – | – | – | –
9 | C[C@H](N)[C@H](NC(=O)c1ccc(C#Cc2ccc(CN3CCOCC3)cc2)cc1)C(=O)NO [Example 133-2] | A (MIC's of 2.0 μg/mL or less = A) | 16 to 64 µg/mL (≈ 36.7 to 147 µM) | < 2 µg/mL | < 2 µg/mL | 16 to 64 µg/mL (≈ 36.7 to 147 µM) | < 2 µg/mL | < 2 µg/mL | > 64 µg/mL | – | – | – | – | – | – | –
10 | C[C@@H](N)[C@H](NC(=O)c1ccc(/C=C/C#Cc2ccc(CN3CCS(=O)(=O)CC3)cc2)cc1)C(=O)NO [Example 113-8] | A (MIC's of 2.0 μg/mL or less = A) | – | – | – | – | – | – | – | A (MIC's of 2.0 μg/mL or less = A) | A (MIC's of 2.0 μg/mL or less = A) | B (MIC's of greater than 2.0 μg/mL to 16.0 μg/mL = B) | B (MIC's of greater than 2.0 μg/mL to 16.0 μg/mL = B) | A (MIC's of 2.0 μg/mL or less = A) | A (MIC's of 2.0 μg/mL or less = A) | C (MIC's of greater than 16.0 μg/mL to 64.0 μg/mL = C)
11 | C[C@@H](N)[C@H](NC(=O)c1ccc(/C=C/C#Cc2ccc(CNC3CC3)cc2)cc1)C(=O)NO [Example 113-2] | A (MIC's of 2.0 μg/mL or less = A) | 2 to 16 µg/mL (≈ 4.62 to 37 µM) | < 2 µg/mL | < 2 µg/mL | 2 to 16 µg/mL (≈ 4.62 to 37 µM) | < 2 µg/mL | < 2 µg/mL | > 64 µg/mL | – | – | – | – | – | – | –
12 | O=C(CNC1CC1)NC[C@H](NC(=O)c1ccc(C#C/C=C/c2ccc(CO)cc2)cc1)C(=O)NO [Example 103-1, N—[(S)-2-(2-cyclopropylamino-acetylamino)-1-hydroxycarbamoyl-ethyl]-4-[(E)-4-(4-hydroxymethyl-phenyl)-but-3-en-1-ynyl]-benzamide] | A (MIC's of 2.0 μg/mL or less = A) | > 64 µg/mL | < 2 µg/mL | 2 to 16 µg/mL (≈ 4.2 to 33.6 µM) | 2 to 16 µg/mL (≈ 4.2 to 33.6 µM) | < 2 µg/mL | < 2 µg/mL | > 64 µg/mL | – | – | – | – | – | – | –
13 | C[C@@H](N)[C@H](NC(=O)c1ccc(C#CC#Cc2cccc(Cl)c2)cc1)C(=O)NO [Example 82-9] | A (MIC's of 2.0 μg/mL or less = A) | 2 to 16 µg/mL (≈ 5.05 to 40.4 µM) | < 2 µg/mL | 2 to 16 µg/mL (≈ 5.05 to 40.4 µM) | 2 to 16 µg/mL (≈ 5.05 to 40.4 µM) | < 2 µg/mL | < 2 µg/mL | 2 to 16 µg/mL (≈ 5.05 to 40.4 µM) | – | – | – | – | – | – | –
